From US20080262081A1, “Novel Use of Nutraceutical Compositions Comprising Resveratrol” (priority 2005, published 2008)

System: phosphorylated p70S6K (Thr389)
Test: Phosphorylated p70S6K (Thr389) level in insulin-stimulated C3H10T1/2 cells (Western blot)
Format: cell-based, Mouse
Design: key to Phosphorylated p70S6K (Thr389) level, % vs. Vehicle: *: under detectable level
Conditions: for Phosphorylated p70S6K (Thr389) level, % vs. Vehicle: vehicle = 100%
Protocol: Mouse embryonic mesenchymal stem cells, C3H10T1/2 cells, (ATCC, USA, #CCL-226), were cultured in DMEM (low glucose […], Gibco), supplemented with 10% FBS and 2 mM L-Glutamine (Gibco). 2×10^5 cells /well were seeded in 6-well plate and grown to 80% confluency. Cells were treated with either rapamycin (Tocris, UK, #1292) at 100 nM, EGCG (TEAVIGO®, DSM Nutritional Product ltd. Switzerland) at 10 microM , resveratrol (DSM Nutritional Products Ltd. Switzerland) at 0.1, 1, 10 μM or combination of EGCG (10 microM) and resveratrol (0.1,1, 10 μM) for 30 min, then stimulated with insulin (Sigma, Switzerland) at 100 nM for 30 min. Cells were washed twice with PBS and harvested in 0.4 ml NETT buffer (0.1 M NaCl, 10 mM Tris-HCL (pH 7.6), 1 mM EDTA, 1% Triton X-100, pH 7.6 ). Cell lysates were sonicated and centrifuged at 14,000 rpm for 2 min. Protein concentration was determined using BCA assay (PIERCE, USA #23223). 10 microgram whole cell extracts were loaded on SDS-gel (10-20% Tricine gradient gel) and blotted on nitrocellulose membrane (0.2 μm pore, Invitrogen, #LC2000 ). Blot was incubated first with monoclonal antibody, phosphor-p70 S6 Kinase (Thr389)(1A5) mouse mAb (Cell signaling technology, #9206) at 1:2000 dilution, then with secondary antibody, goat anti-mouse IgG HRP (Santa Cruz, USA, #SC2055) at 1:10000. Protein load was control by measuring β-actin using anti mouse β-actin (Sigma, Switzerland, #A-5441). The signals were detected using ECL plus Western Blotting Detection System (Amersham Biosciences; RPN2132). Membrane was exposed to X-ray film for 30′ (Hyperfilm ECL; High performance chemiluminescence film, Amersham Biosciences; RPN1674 ) and films were scanned with ChemiGenius 2 machine (Syngene, UK). The signals were quantified by using GeneTools software (Syngene, UK). Signal of phosphorylated p70S6K was normalized to the protein load control β-actin, and vehicle was set up as 100%.

[1] = 10 μM single agent, insulin 100 nM

Row | Compound | Phosphorylated p70S6K (Thr389) level, % vs. Vehicle (100 nM, 30 min pretreatment then insulin 100 nM 30 min, normalized to β-actin) | Phosphorylated p70S6K (Thr389) level, % vs. Vehicle (0.1 μM single agent, insulin 100 nM) | Phosphorylated p70S6K (Thr389) level, % vs. Vehicle (1 μM single agent, insulin 100 nM) | Phosphorylated p70S6K (Thr389) level, % vs. Vehicle [1] | effect on phosphorylated p70S6K (Thr389) amount (in words) (0.1, 1 and 10 microM) | effect on phosphorylated p70S6K (Thr389) amount (in words) (10 microM)
1 | CO[C@H]1C[C@@H]2CC[C@@H](C)[C@@](O)(O2)C(=O)C(=O)N2CCCC[C@H]2C(=O)O[C@H]([C@H](C)C[C@@H]2CC[C@@H](O)[C@H](OC)C2)CC(=O)[C@H](C)/C=C(\C)[C@@H](O)[C@@H](OC)C(=O)[C@H](C)C[C@H](C)/C=C/C=C/C=C/1C [Rapa, rapamycin, reference compound] | * |  |  |  |  | 
2 | Oc1ccc(C=Cc2cc(O)cc(O)c2)cc1 [Resveratrol, resveratrol] |  | 95.23% | 106.9157% | 132.715% | no influence | 
3 | (−)-epigallocatechin gallate [EGCG] |  |  |  | 117.20% |  | little effect
